This note sets out measurements from the NIST ThermoML archive (doi:10.1021/je5009729).

For orientation: vapor or sublimation pressure means the equilibrium pressure above the liquid or solid.

Numbers after ± are expanded uncertainties.

The conditions of data set [1]: for vapor or sublimation pressure: Gas chromatography; for Normal melting temperature / Triple point temperature: DTA.
A short description of data set [2]: Molar enthalpy of transition or fusion. The note with it: DSC.

With `CCCCCCCC/C=C\CCCCCCCCCC(=O)O` [(11Z)-eicosenoic acid], the “vapor or sublimation pressure” value in data set [1] (298.15 K, Liquid) was found to be 1.18e-09 kPa.
Take `CCCCCCCCCCCCCCCCCCCCCCCCCC(=O)O` [hexacosanoic acid]: the “vapor or sublimation pressure” value in data set [1] (298.15 K, Crystal) stood at 8e-15 kPa; in data set [1] (298.15 K, Liquid), 2.5e-12 kPa. Further, the Normal melting temperature in data set [1] (Crystal 1) was 85.7 ± 0.7 °C. Moreover, the Triple point temperature in data set [1] (Crystal 2) was 354.3 ± 0.5 K. Moreover, in data set [2] (Crystal 2), the “Molar enthalpy of transition or fusion” value was 21.2 ± 0.621 kcal/mol.
`CCCCCCCCCCCCCCCCCCCCCCCC(=O)O` [lignoceric acid]: the “vapor or sublimation pressure” value is 4e-14 kPa in data set [1] (298 K, Crystal) and 1.1e-11 kPa in data set [1] (298.15 K, Liquid). Besides, the Normal melting temperature in data set [1] (Crystal 1) turned out to be 83.4 ± 0.5 °C. Also, the Triple point temperature was 351 ± 1 K in data set [1] (Crystal 2) and 347 ± 1 K in data set [1] (Crystal 3). The “Molar enthalpy of transition or fusion” value in data set [2] (Crystal 1) was 20.2 ± 0.454 kcal/mol; in data set [2] (Crystal 3), 1.18 ± 0.0621 kcal/mol.
Regarding `CCCCCCCCCCC/C=C\CCCCC(=O)O` [(Z)-6-octadecenoic acid], in data set [1] (298.15 K, Liquid), the “vapor or sublimation pressure” value is recorded as 1.13e-08 kPa.
On the same count and under the same terms, with `CCCCCC/C=C\CCCCCCCC(=O)O` [cis-9-hexadecenoic acid] the figure was 6.9e-08 kPa.
The same measure, in the same setting: as for `CC/C=C\C/C=C\C/C=C\C/C=C\C/C=C\C/C=C\CCC(=O)O` [cis-4,7,10,13,16,19-docosahexaenoic acid], the figure is 2.2e-11 kPa.
Regarding `CCCCCCCC/C=C\CCCCCCCCCCCCCC(=O)O` [(Z)-tetracos-15-enoic acid], the “vapor or sublimation pressure” value in data set [1] (298 K, Crystal) was determined as 2.7e-12 kPa; in data set [1] (298.15 K, Liquid), 1e-11 kPa. The Normal melting temperature in data set [1] (Crystal) amounted to 42 ± 1 °C. Also, the “Molar enthalpy of transition or fusion” value in data set [2] (Crystal) came out at 14.4 ± 0.359 kcal/mol.
With `CCCCCC=CCC=CCC=CCC=CCCCC(=O)O` [5,8,11,14-eicosatetraenoic acid], in data set [1] (298.15 K, Liquid), the “vapor or sublimation pressure” value was 6.5e-10 kPa.
The same measure, in the same setting: as for `CCCCCCCC/C=C\CCCCCCCC(=O)O` [(Z)-9-octadecenoic acid], the figure is 1.01e-08 kPa.
